According to patent US9149038B2, “4-amino-6-(heterocyclic)picolinates and 6-amino-2-(heterocyclic)pyrimidine-4-carboxylates and their use as herbicides” (Dow AgroSciences LLC, priority 2013, dated 2015):
Like-named read-outs stand apart in the source and are kept apart here.

Tested on: Wheat and Barley and weed species
Experiment: Post-Emergent Test III: postemergent herbicidal activity in wheat and barley, visual rating after 21 d and probit GR20/GR50/GR80/GR90 (Tables 9-13)
Type: in vivo
Details: for pest or weed control at 17.5 g/ha / pest or weed control at 35 g/ha / pest or weed control at 70 g/ha: post-emergence, 504 h
Method in brief: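 Greenhouse plants (~18/17 °C, 14 h photoperiod) at second–third true leaf stage sprayed at 187 L/ha with a high rate and ½× to 1/16× serial dilutions. Visual injury 0–100% versus solvent-blank controls scored at 21 d; GR20, GR50, GR80 and GR90 derived by probit analysis across rates.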

## Nc1c(F)c(-c2cc3c(cc2F)OC(F)(F)O3)nc(C(=O)O)c1Cl [Compound 13]
ALOMY black-grass (Alopecurus myosuroides), growth reduction of 50%, probit analysis
  GR50 ALOMY: 20 g ai/ha
ALOMY black-grass (Alopecurus myosuroides), growth reduction of 80%, probit analysis
  GR80 ALOMY: 40 g ai/ha
ALOMY black-grass (Alopecurus myosuroides), growth reduction of 90%, probit analysis
  GR90 ALOMY: 57 g ai/ha
APESV bentgrass (Apera spica-venti), growth reduction of 50%, probit analysis
  GR50 APESV: >70 g ai/ha
APESV bentgrass (Apera spica-venti), growth reduction of 80%, probit analysis
  GR80 APESV: >70 g ai/ha
APESV bentgrass (Apera spica-venti), growth reduction of 90%, probit analysis
  GR90 APESV: >70 g ai/ha
HORVS barley, spring (crop), growth reduction of 20%, probit analysis
  GR20 HORVS: 2 g ai/ha
Hordeum vulgare, HORVS barley, spring (crop), 17.5 g ai/ha, read-out: Visual Growth Reduction (%) 21 Days After Application HORVS
  pest or weed control at 17.5 g/ha: 60 to 74%
Hordeum vulgare, HORVS barley, spring (crop), 35 g ai/ha, read-out: Visual Growth Reduction (%) 21 Days After Application HORVS
  pest or weed control at 35 g/ha: 75 to 84%
Hordeum vulgare, HORVS barley, spring (crop), 70 g ai/ha, read-out: Visual Growth Reduction (%) 21 Days After Application HORVS
  pest or weed control at 70 g/ha: 85 to 94%
LOLSS ryegrass, growth reduction of 50%, probit analysis
  GR50 LOLSS: >70 g ai/ha
LOLSS ryegrass, growth reduction of 80%, probit analysis
  GR80 LOLSS: >70 g ai/ha
LOLSS ryegrass, growth reduction of 90%, probit analysis
  GR90 LOLSS: >70 g ai/ha
MATCH wild chamomile (Matricaria recutita L.), 17.5 g ai/ha
  Visual Growth Reduction (%) 21 Days After Application MATCH: G (0-29)
MATCH wild chamomile (Matricaria recutita L.), 35 g ai/ha
  Visual Growth Reduction (%) 21 Days After Application MATCH: F (30-44)
MATCH wild chamomile (Matricaria recutita L.), 70 g ai/ha
  Visual Growth Reduction (%) 21 Days After Application MATCH: D (60-74)
MATCH wild chamomile (Matricaria recutita L.), growth reduction of 50%, probit analysis
  GR50 MATCH: 58 g ai/ha
MATCH wild chamomile (Matricaria recutita L.), growth reduction of 80%, probit analysis
  GR80 MATCH: >70 g ai/ha
MATCH wild chamomile (Matricaria recutita L.), growth reduction of 90%, probit analysis
  GR90 MATCH: >70 g ai/ha
SETVI green foxtail (Setaria viridis), growth reduction of 50%, probit analysis
  GR50 SETVI: 4 g ai/ha
SETVI green foxtail (Setaria viridis), growth reduction of 80%, probit analysis
  GR80 SETVI: 20 g ai/ha
SETVI green foxtail (Setaria viridis), growth reduction of 90%, probit analysis
  GR90 SETVI: 45 g ai/ha
TRZAS wheat, spring (crop), growth reduction of 20%, probit analysis
  GR20 TRZAS: 2 g ai/ha
Triticum aestivum, TRZAS wheat, spring (crop), 17.5 g ai/ha, read-out: Visual Growth Reduction (%) 21 Days After Application TRZAS
  pest or weed control at 17.5 g/ha: 60 to 74%
Triticum aestivum, TRZAS wheat, spring (crop), 35 g ai/ha, read-out: Visual Growth Reduction (%) 21 Days After Application TRZAS
  pest or weed control at 35 g/ha: 75 to 84%
Triticum aestivum, TRZAS wheat, spring (crop), 70 g ai/ha, read-out: Visual Growth Reduction (%) 21 Days After Application TRZAS
  pest or weed control at 70 g/ha: 75 to 84%
VERPE bird's-eye speedwell (veronica persica), 17.5 g ai/ha
  Visual Growth Reduction (%) 21 Days After Application VERPE: C (75-84)
VERPE bird's-eye speedwell (veronica persica), 35 g ai/ha
  Visual Growth Reduction (%) 21 Days After Application VERPE: B (85-94)
VERPE bird's-eye speedwell (veronica persica), 70 g ai/ha
  Visual Growth Reduction (%) 21 Days After Application VERPE: A (95-100)
VERPE bird's-eye speedwell (veronica persica), growth reduction of 50%, probit analysis
  GR50 VERPE: 3 g ai/ha
VERPE bird's-eye speedwell (veronica persica), growth reduction of 80%, probit analysis
  GR80 VERPE: 16 g ai/ha
VERPE bird's-eye speedwell (veronica persica), growth reduction of 90%, probit analysis
  GR90 VERPE: 37 g ai/ha
ALOMY black-grass (Alopecurus myosuroides), 17.5 g ai/ha, read-out: Visual Growth Reduction (%) 21 Days After Application ALOMY
  pest or weed control at 17.5 g/ha: 45 to 59%
ALOMY black-grass (Alopecurus myosuroides), 35 g ai/ha, read-out: Visual Growth Reduction (%) 21 Days After Application ALOMY
  pest or weed control at 35 g/ha: 60 to 74%
ALOMY black-grass (Alopecurus myosuroides), 70 g ai/ha, read-out: Visual Growth Reduction (%) 21 Days After Application ALOMY
  pest or weed control at 70 g/ha: 95 to 100%
APESV bentgrass (Apera spica-venti), 17.5 g ai/ha, read-out: Visual Growth Reduction (%) 21 Days After Application APESV
  pest or weed control at 17.5 g/ha: 0 to 29%
APESV bentgrass (Apera spica-venti), 35 g ai/ha, read-out: Visual Growth Reduction (%) 21 Days After Application APESV
  pest or weed control at 35 g/ha: 45 to 59%
APESV bentgrass (Apera spica-venti), 70 g ai/ha, read-out: Visual Growth Reduction (%) 21 Days After Application APESV
  pest or weed control at 70 g/ha: 60 to 74%
LOLSS ryegrass, 17.5 g ai/ha, read-out: Visual Growth Reduction (%) 21 Days After Application LOLSS
  pest or weed control at 17.5 g/ha: 0 to 29%
LOLSS ryegrass, 35 g ai/ha, read-out: Visual Growth Reduction (%) 21 Days After Application LOLSS
  pest or weed control at 35 g/ha: 0 to 29%
LOLSS ryegrass, 70 g ai/ha, read-out: Visual Growth Reduction (%) 21 Days After Application LOLSS
  pest or weed control at 70 g/ha: 0 to 29%
SETVI green foxtail (Setaria viridis), 17.5 g ai/ha, read-out: Visual Growth Reduction (%) 21 Days After Application SETVI
  pest or weed control at 17.5 g/ha: 60 to 74%
SETVI green foxtail (Setaria viridis), 35 g ai/ha, read-out: Visual Growth Reduction (%) 21 Days After Application SETVI
  pest or weed control at 35 g/ha: 75 to 84%
SETVI green foxtail (Setaria viridis), 70 g ai/ha, read-out: Visual Growth Reduction (%) 21 Days After Application SETVI
  pest or weed control at 70 g/ha: 95 to 100%
